The target of assay [1] is Sodium/potassium-transporting ATPase. Kind of assay: Inhibition of myocardial Na+/K+ ATPase from canine cardiac sarcolemma. The class given is protein-complex assay, Canis lupus familiaris.
The species named for assay [2] is Cavia porcellus. Kind of assay: Compound was evaluated for inotropic activity in guinea pig papillary muscle. The assay is classed as functional. Conditions: Muscle tissue.

Broadly, the IC50 is the concentration needed to halve the response being measured. The term EC50 denotes the concentration giving half of the maximal effect. The low end stands for a more potent agent, the high end for a less potent agent.

`C[C@@H](Nc1ncc(-c2ccccc2)n1C)c1ccccc1` showed an IC50 in assay [1] of 10 µM. Same read-out and setting: the same measure for `CC(Nc1ncc(-c2cc(C(F)(F)F)cc(C(F)(F)F)c2)n1C)c1ccccc1` (centres undefined): 88 µM. In turn, `COc1cc2c(cc1OC)-c1cnc(NCc3ccccc3)n1CC2` had an EC50 in assay [2] of 1 µM. This counts as single-digit micromolar. As for `CCC(Nc1ncc(-c2ccccc2)n1C)c1ccc(Cl)cc1` (centres undefined), the IC50 in assay [1] came to 0.8 µM.

In turn, `C[C@H](Nc1ncc(-c2ccccc2)n1C)c1ccccc1` registered an IC50 in assay [1] of 61 µM. Take `CC(Nc1ncc(-c2ccccc2)n1C)c1ccc(F)cc1` (centres undefined): the IC50 in assay [1] came out at 10 µM. Compound `CC(Nc1ncc(-c2cccc(-c3ccccc3)c2)n1C)c1ccccc1` (centres undefined) came in with an IC50 in assay [1] of 14 µM. Still for that read-out and setting: the same measure for `CCC(C)C(Nc1ncc(-c2ccccc2)n1C)c1ccccc1` (centres undefined): 77 µM. In assay [1], `CC(Nc1ncc(-c2ccccc2)n1C)c1ccc(Cl)cc1` (centres undefined) gave an IC50 of 1.3 µM. Compared with the last compound, the IC50 is about 59-fold lower. Regarding `CC(Nc1ncc(-c2ccc3ccccc3c2)n1C)c1ccccc1` (centres undefined), 2.1 µM corresponded to half-maximal inhibition in assay [1] (IC50). Regarding `COc1ccc(-c2cnc(NC(C)c3ccccc3)n2C)cc1OC` (centres undefined), the IC50 in assay [1] was 99 µM. With `CC(Nc1ncc(-c2ccccc2)n1C)c1ccccc1` (centres undefined), in assay [1], half-maximal inhibition (IC50) required 38 µM. This IC50 lies about 2.6-fold lower than the previous one.

Turning to `CC(Nc1ncc(-c2cc(F)cc(F)c2)n1C)c1ccccc1` (centres undefined), in assay [1], the IC50 is 52 µM. The IC50 values of the last two compounds are within 1.5-fold of each other. `CC(Nc1ncc(-c2ccc(OC(F)(F)F)cc2)n1C)c1ccccc1` (centres undefined) displayed an IC50 in assay [1] of 33 µM.

Values taken from ChEMBL document CHEMBL1133229, “Parallel synthesis and evaluation of N-(1-phenylethyl)-5-phenyl-imidazole-2-amines as Na+/K+ ATPase inhibitors” (Bioorg Med Chem Lett, 2000).
